In patent US6410792B1, “Amide derivatives and methods for using the same as selective neuropeptide Y receptor antagonists” (Bayer Corporation, priority 1997, dated 2002):
Counter-ions that a name gives are not always drawn.

Biological target: T1, Y2 receptor (Homo sapiens, UniProt P49146)
T1 sequence (P49146 1-381): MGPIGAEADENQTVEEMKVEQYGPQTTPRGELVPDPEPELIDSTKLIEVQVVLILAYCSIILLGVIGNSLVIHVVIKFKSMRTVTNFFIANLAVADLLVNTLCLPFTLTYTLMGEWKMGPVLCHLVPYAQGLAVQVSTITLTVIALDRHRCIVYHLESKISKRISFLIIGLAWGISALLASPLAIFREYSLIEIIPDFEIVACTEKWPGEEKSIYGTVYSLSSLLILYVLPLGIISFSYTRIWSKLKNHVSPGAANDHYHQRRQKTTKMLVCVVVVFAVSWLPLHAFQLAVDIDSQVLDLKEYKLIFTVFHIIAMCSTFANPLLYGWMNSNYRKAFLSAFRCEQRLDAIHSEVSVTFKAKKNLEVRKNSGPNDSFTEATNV
Test: Y2 receptor binding assay ([125I]PYY, membrane protein)
Settings: [125I]PYY binding, membrane protein; read-out: hNPY2 IC50
Procedure: B. Human Y2 and Y4/PP1 Receptor Binding Assays
Binding assays were performed on GF/C Millipore 96-well plates pretreated with 0.02% polyethylenimine. The binding buffer for rat Y2 binding is Krebs-Ringer bicarbonate (pH 7.4) containing 0.01% BSA and 0.005% bacitracin. Samples consist of membrane protein, 25 pM [1251]PYY and drug dilution. Nonspecific binding is defined by 1 μM NPY. The binding buffer for human Y4/PP1 binding consists of 137 mM NaCl, 5.4 mM KCl, 0.44 mM KH2PO4, 1.26 mM CaCl2, 0.81 mM MgSO4, 20 mM HEPES, 1 mM dithiothreitol, 0.1% bacitracin, 100 mg/l streptomycin sulfate, 1 mg/l aprotinin, 10 mg/ml soybean trypsin inhibitor and 0.3% BSA, pH 7.4. Samples consist of membrane protein, 50 pM human [1251]human PP (hPP: NEN DuPont, Boston, Mass.) and drug dilution. 1 μM hPP is used to define nonspecific binding.
After a 2 hour incubation at room temperature with constant mixing, the samples are aspirated on a vacuum manifold, and rinsed with ice-cold binding buffer. The amount of radioactivity in each well is quantitated with either gamma counting or liquid scintillation.

“1-[(4 Benzoyl-phenylcarbamoyl)-methyl]-4-dimethylamino-piperidine-4-carboxylic acid amide [Compound 53]” and “1-[(4-Cyclohexyl-phenylcarbamoyl)-methyl]-piperidine-4-carboxylic acid [Compound 25]” cannot be ordered by IC50: > 5 µM for the first, > 5 µM for the second.

“2-[4-(4-Bromo-phenyl)-4-hydroxy-piperidin-1-yl]-N-(4-cyclohexyl-phenyl)-acetamide [Compound 88]” and “2-[4-(4-Chloro-phenyl)-3,6-dihydro-2H-pyridin-1-yl]-N-(4-cyclohexyl-phenyl)-acetamide [Compound 15]” cannot be ordered by IC50: > 5 µM for the first, > 5 µM for the second.

`O=C(CN1CCC(O)(Cc2ccccc2)CC1)Nc1ccc(C2CCCCC2)cc1` [Compound 1, 2-(4-Benzyl-4-hydroxypiperidin-1-yl)-N-(4-cyclohexylphenyl)acetamide] and `CN(C)CC(=O)Nc1ccc(C2CCCCC2)cc1` [Compound 2, N-(4-Cyclohexyl-phenyl)-2-dimethylamino-acetamide] cannot be ordered by IC50: > 5 µM for the first, > 5 µM for the second.

`O=C(CN1CCN(c2ccc(Cl)cc2)CC1)Nc1ccc(C2CCCCC2)cc1` [Compound 4, 2-[4-(4-Chloro-phenyl)-piperazin-1-yl]-N-(4-cyclohexyl-phenyl)-acetamide] and `O=C(CN1CCCC1C(=O)O)Nc1ccc(C(=O)c2ccccc2)cc1` (centres unmarked) [Compound 124, 1-[(4-Benzoyl-phenylcarbamoyl)-methyl]-pyrrolidine-2-carboxylic acid] cannot be ordered by IC50: > 5 µM for the first, > 5 µM for the second.

Same assay, conditions: [125I]PYY, membrane protein; read-out: hNPY2 IC50

For `O=C(CN1CCC(n2c(=O)[nH]c3ccccc32)CC1)NC(c1ccccc1)c1ccccc1` [Compound 322, N-Benzhydryl-2-[4-(2-oxo-2,3-dihydro-benzoimidazol-1-yl)-piperidin-1-yl]-acetamide; hydrochloride], the IC50 was > 5 µM.

Biological target: T2, Human NPY5 receptor (Homo sapiens, UniProt Q15761)
T2 sequence (Q15761 1-445): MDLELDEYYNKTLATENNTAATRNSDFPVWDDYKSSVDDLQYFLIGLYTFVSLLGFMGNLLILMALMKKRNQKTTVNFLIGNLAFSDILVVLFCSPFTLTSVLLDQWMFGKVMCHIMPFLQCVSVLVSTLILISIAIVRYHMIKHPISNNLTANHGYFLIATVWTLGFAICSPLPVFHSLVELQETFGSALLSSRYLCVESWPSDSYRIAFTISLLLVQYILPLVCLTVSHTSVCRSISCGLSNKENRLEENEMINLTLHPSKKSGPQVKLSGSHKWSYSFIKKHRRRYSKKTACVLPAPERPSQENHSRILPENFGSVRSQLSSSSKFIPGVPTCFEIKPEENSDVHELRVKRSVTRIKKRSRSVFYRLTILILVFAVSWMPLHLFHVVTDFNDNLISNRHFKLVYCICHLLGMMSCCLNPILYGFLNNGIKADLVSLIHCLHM
Test: Human NPY5 receptor binding assay ([125I]PYY, membrane protein)
Settings: [125I]PYY binding, read-out: hNPY5 IC50
Procedure: C. Human and Rat NPY5 Receptor Binding Assays
Binding assays are performed on GF/C Millipore 96well plates pretreated with 0.02% polyethylenimine. The binding buffer is 25 mM Tris, 120 mM NaCl, 5 mM KCl, 1.2 mM KH2PO4, 2.5 mM CaCl2, 1.2 mM MgSO4, 0.1% BSA and 0.5 mg/ml bacitracin, pH 7.4. Samples consist of membrane protein, 75-100 pM [125I]PYY (porcine, NEN-DuPont) and drug dilution. Nonspecific binding is defined by 1 μM PYY. After a 2 hour incubation at room temperature with constant mixing, the samples are aspirated on a vacuum manifold, and rinsed with ice-cold binding buffer. The amount of radioactivity in each well is quantitated with either gamma counting or liquid scintillation.

Going from “1-[(4 Benzoyl-phenylcarbamoyl)-methyl]-4-dimethylamino-piperidine-4-carboxylic acid amide [Compound 53]” to “1-[(4-Cyclohexyl-phenylcarbamoyl)-methyl]-piperidine-4-carboxylic acid [Compound 25]”, the IC50 rises from 0.44 µM to 1.9 µM (4.3-fold).

Going from “2-[4-(4-Bromo-phenyl)-4-hydroxy-piperidin-1-yl]-N-(4-cyclohexyl-phenyl)-acetamide [Compound 88]” to “2-[4-(4-Chloro-phenyl)-3,6-dihydro-2H-pyridin-1-yl]-N-(4-cyclohexyl-phenyl)-acetamide [Compound 15]”, the IC50 rises from 0.12 µM to 2.7 µM (23-fold). The first is the more potent here.

Compared with `O=C(CN1CCC(O)(Cc2ccccc2)CC1)Nc1ccc(C2CCCCC2)cc1` [Compound 1, 2-(4-Benzyl-4-hydroxypiperidin-1-yl)-N-(4-cyclohexylphenyl)acetamide], `CN(C)CC(=O)Nc1ccc(C2CCCCC2)cc1` [Compound 2, N-(4-Cyclohexyl-phenyl)-2-dimethylamino-acetamide] is 5.2-fold higher in IC50: 0.15 µM for the first, 0.78 µM for the second.

Going from `O=C(CN1C[C@H](O)C[C@H]1C(=O)O)Nc1ccc(C2CCCCC2)cc1` [Compound 12, (4R,2S)-1-[(4-Cyclohexyl-phenylcarbamoyl)-methyl]-4-hydroxy-pyrrolidine-2-carboxylic acid] to `CN(C)C1(C(N)=O)CCN(CC(=O)Nc2ccc(C3CCCCC3)cc2)CC1` [Compound 65, 1-[(4-Cyclohexyl-phenylcarbamoyl)-methyl]-4-dimethylamino-piperidine-4-carboxylic acid amide], the IC50 falls from 8.9 µM to 0.69 µM (13-fold).

`O=C(CNC(c1ccccc1)c1ccccc1)Nc1ccc(C2CCCCC2)cc1` [Compound 131, 2-(Benzhydryl-amino)-N-(4-cyclohexyl-phenyl)-acetamide] and `NCCNCC1CCN(CC(=O)Nc2ccc(C(=O)c3ccccc3)cc2)CC1` [Compound 134, 2-{4-[(2-Amino-ethylamino)-methyl]-piperidin-1-yl}-N-(4-benzoyl-phenyl)-acetamide] cannot be ordered by IC50: > 5 µM for the first, > 5 µM for the second.

`O=C(CN1CCCC1)Nc1ccc(C(=O)c2ccccc2)cc1` [Compound 136, N-(4-Benzoyl-phenyl)-2-pyrrolidin-1-yl-acetamide] and `O=C(CNc1nc[nH]n1)Nc1ccc(C(=O)c2ccccc2)cc1` [Compound 137, N-(4-Benzoyl-phenyl)-2-(1H-[1,2,4]triazol-3-ylamino)-acetamide] cannot be ordered by IC50: > 5 µM for the first, > 5 µM for the second.

`O=C(CNC(c1ccccc1)c1ccccc1)Nc1ccc(C(=O)c2ccccc2)cc1` [Compound 138, 2-(Benzhydryl-amino)-N-(4-benzoyl-phenyl)-acetamide] and `Cn1cccc1CCNCC(=O)Nc1ccc(C(=O)c2ccccc2)cc1` [Compound 139, N-(4-Benzoyl-phenyl)-2-[2-(1-methyl-1H-pyrrol-2-yl)-ethylamino]-acetamide] cannot be ordered by IC50: > 5 µM for the first, > 5 µM for the second.

`CCCCCCCCCCNCC(=O)Nc1ccc(C2CCCCC2)cc1` [Compound 140, N-(4-Cyclohexyl-phenyl)-2-decylamino-acetamide] and `O=C(CNCCCc1ccccc1)Nc1ccc(C2CCCCC2)cc1` [Compound 141, N-(4-Cyclohexyl-phenyl)-2-(3-phenyl-propylamino)-acetamide] cannot be ordered by IC50: > 5 µM for the first, > 5 µM for the second.

`O=C(CNCCc1c[nH]cn1)Nc1ccc(C2CCCCC2)cc1` [Compound 142, N-(4-Cyclohexyl-phenyl)-2-[2-(1H-imidazol-4-yl)-ethylamino]-acetamide] and `O=C(CNCCc1c[nH]c2ccccc12)Nc1ccc(C2CCCCC2)cc1` [Compound 143, N-(4-Cyclohexyl-phenyl)-2-[2-(1H-indol-3-yl)-ethylamino]-acetamide] cannot be ordered by IC50: > 5 µM for the first, > 5 µM for the second.

`COc1ccc2[nH]cc(CCNCC(=O)Nc3ccc(C4CCCCC4)cc3)c2c1` [Compound 144, N-(4-Cyclohexyl-phenyl)-2-[2-(5-methoxy-1H-indol-3-yl)-ethylamino]-acetamide] and `COc1ccc(CCNCC(=O)Nc2ccc(C3CCCCC3)cc2)cc1` [Compound 145, N-(4-Cyclohexyl-phenyl)-2-[2-(4-methoxy-phenyl)-ethylamino]-acetamide] cannot be ordered by IC50: > 5 µM for the first, > 5 µM for the second.

`O=C(CNCCN1CCNCC1)Nc1ccc(C2CCCCC2)cc1` [Compound 146, N-(4-Cyclohexyl-phenyl)-2-(2-piperazin-1-yl-ethylamino)-acetamide] and `O=C(CNCCNc1ccc([N+](=O)[O-])cn1)Nc1ccc(C2CCCCC2)cc1` [Compound 147, N-(4-Cyclohexyl-phenyl)-2-[2-(5-nitro-pyridin-2-ylamino)-ethylamino]-acetamide] cannot be ordered by IC50: > 5 µM for the first, > 5 µM for the second.

`COc1ccccc1CNCC(=O)Nc1ccc(C2CCCCC2)cc1` [Compound 149, N-(4-Cyclohexyl-phenyl)-2-(2-methoxy-benzylamino)-acetamide] and `CCCCCCCCCCNCC(=O)Nc1ccc(C(=O)c2ccccc2)cc1` [Compound 150, N-(4-Benzoyl-phenyl)-2-decylamino-acetamide] cannot be ordered by IC50: > 5 µM for the first, > 5 µM for the second.

`O=C(CNCCCc1ccccc1)Nc1ccc(C(=O)c2ccccc2)cc1` [Compound 151, N-(4-Benzoyl-phenyl)-2-(3-phenyl-propylamino)-acetamide] and `O=C(CNCCc1c[nH]cn1)Nc1ccc(C(=O)c2ccccc2)cc1` [Compound 152, N-(4-Benzoyl-phenyl)-2-[2-(1H-imidazol-4-yl)-ethylamino]-acetamide] cannot be ordered by IC50: > 5 µM for the first, > 5 µM for the second.

`O=C(CNCCc1c[nH]c2ccccc12)Nc1ccc(C(=O)c2ccccc2)cc1` [Compound 153, N-(4-Benzoyl-phenyl)-2-[2-(1H-indo-3-yl)-ethylamino]-acetamide] and `COc1ccc(CCNCC(=O)Nc2ccc(C(=O)c3ccccc3)cc2)cc1` [Compound 155] cannot be ordered by IC50: > 5 µM for the first, > 5 µM for the second.

`O=C(CNCCN1CCNCC1)Nc1ccc(C(=O)c2ccccc2)cc1` [Compound 156, N-(4-Benzoyl-phenyl)-2-(2-piperazin-1-yl-ethylamino)-acetamide] and `O=C(CNCCNc1ccc([N+](=O)[O-])cn1)Nc1ccc(C(=O)c2ccccc2)cc1` [Compound 157, N-(4-Benzoyl-phenyl)-2-[2-(5-nitro-pyridin-2-ylamino)-ethylamino]-acetamide] cannot be ordered by IC50: > 5 µM for the first, > 5 µM for the second.

`O=C(CNCc1ccc2c(c1)OCO2)Nc1ccc(C(=O)c2ccccc2)cc1` [Compound 158, 2-[(Benzo[1,3]dioxol-5-ylmethyl)-amino]-N-(4-benzoyl-phenyl)-acetamide] and `COc1ccccc1CNCC(=O)Nc1ccc(C(=O)c2ccccc2)cc1` [Compound 159, N-(4-Benzoyl-phenyl)-2-(2-methoxy-benzylamino)-acetamide] cannot be ordered by IC50: > 5 µM for the first, > 5 µM for the second.
